Results reported in patent US20210275577A1, “MOLECULAR HYDROGEN-CONTAINING COMPOSITION FOR REGULATING INTRACELLULAR SIGNAL TRANSDUCTION” (MiZ Company Limited, priority 2020, published 2021).
Like-named read-outs stand apart in the source and are kept apart here.

Columns and labels:
[1] = after inhalation of a hydrogen gas
[2] = room temperature, normal pressure; cited from earlier work
[3] = system: genes related to glycolysis and gluconeogenesis; inflammatory signal transduction pathways
Method: (§1) Cecal ligation and puncture (CLP) or sham surgery were performed on 9-week-old C57BL/6 male mice. Then, the CLP model mice were forced to inhale a 7% hydrogen gas. The inhalation time were two hours per day for one group and continuous 24 hours for the other group. The mice were housed in a chamber in which the concentration of a hydrogen gas could be maintained by a constant supply of a hydrogen gas from a gas generating apparatus (MHG-2000α manufactured by MiZ Company Limited), and forced to inhale the hydrogen gas therein. The mice in the control group were forced to inhale air not containing hydrogen. Mice were bred under a hydrogen gas atmosphere for one week, and the survival rate was evaluated. The serum inflammatory cytokine levels were evaluated using a Quantikine ELISA Kit (INFO) at 24 hours after CLP. The liver, the intestine, and the lung of mice were evaluated by RNA sequencing after inhalation of a hydrogen gas. Data were analyzed using Ingenuity Pathways Analysis (IPA: Qiagen Inc.). Additionally, expression of inflammatory genes in the intestine was investigated by RT-PCR.

[4] = system: cecal ligation and puncture (CLP) model mice
Method: as §1

[5] = CLP model mice, hydrogen gas treatment group; comparison value 74 mg/dL
Method: as §1

TNF-α = settings: 24 hours after CLP
Method: as §1

IL-6 = settings: 24 hours after CLP
Method: as §1

In the case of `[HH]` [hydrogen gas, molecular hydrogen], the “time for hydrogen to reach the liver” value [1] is given as no less than 10 min, the “time for hydrogen to reach the lung” value [1] is given as “rapidly” and the “concentration dissolved in water (solubility)” value [2] is given as “approximately 1.6 ppm”. For the same compound, the “change in levels of genes vs control” value ([3]; hydrogen inhalation time two hours or longer per day) was “differences started to be observed”, the “inflammatory signal transduction pathways (acute phase response signaling, STAT pathway), z-scores” value ([3]; liver and intestine of the CLP model at 24 hours) was “inactive” and the “genes related to glycolysis and gluconeogenesis” value ([3]; liver, GO and pathway enrichment analysis) was “upregulation”. The survival rate ([4]; 7% hydrogen gas, continuous inhalation over 24 hours for 7 days, control 40%, p<0.05, n=20 vs. 20) was 75%, the survival rate ([4]; continuous inhalation time increased to five hours, 12 hours, and 24 hours) was “improved” and the “survival rate vs control” value ([4]; continuous inhalation time per day one hour) was “no difference from control was observed”. The “survival rate vs control” value ([4]; continuous inhalation time two hours) was “differences started to be observed”, the blood glucose level [5] was 127 mg/dL and the “serum TNF-α level” value (TNF-α) was “attenuated”. For the same compound, the “serum IL-6 level” value (IL-6) was “attenuated”.
